According to patent publication US10294202B2, “Pyrrolidinones as herbicides” (FMC Corporation, priority 2013, dated 2019):

Tests used:
[1] = system: pigweed; test: Test A pre-/postemergence herbicide test; type: in vivo, Amaranthus retroflexus
Procedure, shortened: (§1)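 Formulated compound (non-phytotoxic solvent, surfactant) sprayed pre- onto soil of seeded loam/sand pots or post- onto seedlings at 1–2 leaves; ~10 d greenhouse; 0–100 visual control rating versus untreated.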

[2] = system: wheat; test: Test A pre-/postemergence herbicide test; type: in vivo, Triticum aestivum; settings: Postemergence
Procedure, shortened: as §1

[3] = system: corn; test: Test A pre-/postemergence herbicide test; type: in vivo, Zea mays; settings: Postemergence
Procedure, shortened: as §1

[4] = system: rice; test: Test B flooded paddy test; type: in vivo, Oryza sativa; settings: 500 g ai/ha, Flood; scale of 0 to 100 where 0 is no effect and 100 is complete control
Procedure, shortened: (§2)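 Treatment was made at the 2-leaf stage by dosing the standing floodwater, kept 3 cm above soil level for the whole test. Greenhouse exposure lasted 13 to 15 days. Response is a visual percent rating relative to controls, where a dash indicates no test result.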

[5] = system: ducksalad; test: Test B flooded paddy test; type: in vivo, Heteranthera limosa; settings: 500 g ai/ha, Flood; scale of 0 to 100 where 0 is no effect and 100 is complete control
Procedure, shortened: as §2

[6] = system: ryegrass, Italian; test: Test C pre-/postemergence herbicide test; type: in vivo, Lolium multiflorum; settings: Preemergence
Procedure, shortened: (§3)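 Compound solutions contained surfactant in a non-phytotoxic solvent. These were sprayed onto pots of loam/sand sown with seeds, and onto young plants (2 to 18 cm, 1- to 4-leaf) in sphagnum peat–vermiculite mix. Visual injury scores (0 none, 100 complete control) were recorded after 13 to 15 days.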

[7] = system: corn; test: Test C pre-/postemergence herbicide test; type: in vivo, Zea mays; settings: Preemergence; for Plant response rating (scale of 0 to 100), Corn: 250 g ai/ha
Procedure, shortened: as §3

[8] = system: johnsongrass; test: Test C pre-/postemergence herbicide test; type: in vivo, Sorghum halepense; settings: Preemergence; for Plant response rating (scale of 0 to 100), Johnsongrass: 250 g ai/ha
Procedure, shortened: as §3

[9] = system: lambsquarters; test: Test C pre-/postemergence herbicide test; type: in vivo, Chenopodium album; settings: Preemergence; for Plant response rating, Lambsquarters: 125 g ai/ha; for Plant response rating (scale of 0 to 100), Lambsquarters: 250 g ai/ha
Procedure, shortened: as §3

[10] = system: morningglory; test: Test C pre-/postemergence herbicide test; type: in vivo, Ipomoea coccinea; settings: Preemergence; for Plant response rating (scale of 0 to 100), Morningglory: 250 g ai/ha
Procedure, shortened: as §3

[11] = system: nutsedge, yellow; test: Test C pre-/postemergence herbicide test; type: in vivo, Cyperus esculentus; settings: Preemergence; for Plant response rating (scale of 0 to 100), Nutsedge, Yellow: 250 g ai/ha
Procedure, shortened: as §3

[12] = system: ragweed; test: Test C pre-/postemergence herbicide test; type: in vivo, Ambrosia elatior; settings: Preemergence
Procedure, shortened: as §3

[13] = Postemergence, 125 g ai/ha, visual rating on 0 to 100 scale (0 no effect, 100 complete control), approx. 10 days
[14] = Preemergence, 125 g ai/ha, 0 to 100 scale where 0 is no effect and 100 is complete control
[15] = 125 g ai/ha, visual rating on 0 to 100 scale (0 no effect, 100 complete control), approx. 10 days
[16] = 500 g ai/ha, 0 to 100 scale (0 no effect, 100 complete control)
[17] = 31 g ai/ha, scale 0 to 100, 0 is no effect and 100 is complete control
[18] = 62 g ai/ha, scale 0 to 100 (0 no effect, 100 complete control)
[19] = 125 g ai/ha, scale 0 to 100 (0 no effect, 100 complete control)

SMILES	Plant response rating, Pigweed [1, 13]	Plant response rating, Pigweed [1, 14]	Plant response rating, Wheat [2, 15]	Plant response rating, Corn [3, 16]	Plant response rating, Rice [4]	Plant response rating, Ducksalad [5]	Ryegrass, Italian plant response rating [6, 18]	Corn plant response rating [7, 18]	Plant response rating (scale of 0 to 100), Corn [7]	Johnsongrass plant response rating [8, 18]	Plant response rating (scale of 0 to 100), Johnsongrass [8]	Lambsquarters plant response rating [9, 18]	Plant response rating (scale of 0 to 100), Lambsquarters [9]	Morningglory plant response rating [10, 18]	Plant response rating (scale of 0 to 100), Morningglory [10]	Nutsedge, Yellow plant response rating [11, 18]	Plant response rating (scale of 0 to 100), Nutsedge, Yellow [11]	Ragweed plant response rating [12, 18]	also measured
O=C1NCC(c2cc(F)cc(F)c2)C1C(=O)Nc1ccccc1Cl (racemic) [Compound 280]	0	0	0	0	0	100	0	0	5	0	10	0	10	25	30	0	100	0	Plant response rating, Pigweed ([1]; Postemergence, 500 g ai/ha, 0 to 100 scale (0 no effect, 100 complete control)): 0; Plant response rating, Pigweed ([1]; preemergence, 500 g ai/ha, 0 to 100 scale, 0 is no effect and 100 is complete control): 0; Plant response rating, Wheat [2, 16]: 0; Plant response rating, Corn ([3]; 125 g ai/ha, 0 to 100 scale, 0 is no effect, 100 is complete control): 0; Ryegrass, Italian plant response rating [6, 17]: 0; Plant response rating, Ryegrass, Italian [6, 19]: 0; Plant response rating (scale of 0 to 100), Ryegrass, Italian ([6]; 250 g ai/ha): 5; Corn plant response rating [7, 17]: 0; Plant response rating, Corn [7, 19]: 0; Johnsongrass plant response rating [8, 17]: 0; Plant response rating, Johnsongrass [8, 19]: 10; Lambsquarters plant response rating [9, 17]: 0; Plant response rating, Lambsquarters ([9]; scale 0 to 100 (0 no effect, 100 complete control)): 10; Morningglory plant response rating [10, 17]: 10; Plant response rating, Morningglory [10, 19]: 0; Nutsedge, Yellow plant response rating [11, 17]: 0; Plant response rating, Nutsedge, Yellow [11, 19]: 0; Ragweed plant response rating [12, 17]: 0; Plant response rating, Ragweed [12, 19]: 0; Plant response rating (scale of 0 to 100), Ragweed ([12]; 250 g ai/ha): 60
O=C1NCC(c2ccc(OC(F)F)cc2)C1C(=O)Nc1cccc(F)c1F (racemic) [Compound 350]	20	50	20	40	0	100	0	0	40	0	30	90	90	100	100	0	0	0	Pigweed plant response rating ([1]; Preemergence, 500 g ai/ha, visual rating on 0 to 100 scale (0 no effect, 100 complete control)): 80; Plant response rating, Corn [3, 15]: 20; Plant response rating, Ryegrass, Italian ([6]; 125 g ai/ha, scale 0 to 100): 5; Plant response rating, Ryegrass, Italian ([6]; 31 g ai/ha, scale 0 to 100): 0; Plant response rating, Corn ([7]; 125 g ai/ha, scale 0 to 100): 5; Plant response rating, Corn ([7]; 31 g ai/ha, scale 0 to 100): 0; Plant response rating, Johnsongrass ([8]; 125 g ai/ha, scale 0 to 100): 0; Plant response rating, Johnsongrass ([8]; 31 g ai/ha, scale 0 to 100): 0; Plant response rating, Lambsquarters ([9]; scale 0 to 100): 90; Plant response rating, Morningglory ([10]; 125 g ai/ha, scale 0 to 100): 100; Plant response rating, Morningglory ([10]; 31 g ai/ha, scale 0 to 100): 100; Plant response rating, Nutsedge, Yellow ([11]; 125 g ai/ha, scale 0 to 100): 0; Plant response rating, Nutsedge, Yellow ([11]; 31 g ai/ha, scale 0 to 100): 0; Plant response rating, Ragweed ([12]; 125 g ai/ha, scale 0 to 100): 5; Plant response rating, Ragweed ([12]; 31 g ai/ha, scale 0 to 100): 0
